Data: patent US20050197350A1, “Novel quinoline, tetrahydroquinazoline, and pyrimidine derivatives and methods of treatment related to the use thereof” (TAISHO PHARMACEUTICAL CO., LTD., priority 2003, published 2005)

System: MCH receptors
Experiment: MCH receptor activity class (method not given)
[1] = class by percent of control at 10^-7 M or IC50
[2] = MCH receptor, class by percent of control at 10^-7 M or IC50
[3] = class by percent of control at 10^−7 M or IC50
[4] = MCH receptor activity class 1-3 (percent of control at 10^-7 M or IC50)
[5] = class 1-3 by percent of control at 10^-7 M or IC50
[6] = activity class 1-3: percent of control at 10^-7 M or IC50
[7] = activity class per percent of control at 10^-7 M or IC50

Cc1cc(C(=O)NC[C@H]2CC[C@@H](Nc3cc(N(C)C)c4ccccc4n3)CC2)nn1C(C)(C)C [compound 217]
class [1]: 3 (Class 3 The value of percent of control at 10^−7 M was more than 60% or the value of IC50 was more than 200 nM.)

CN(C)c1cc(NC2CCC(CNC(=O)OCc3ccc([N+](=O)[O-])cc3)CC2)nc2ccccc12 (stereo not drawn) [compound 183]
class [2]: 3 (Class 3 The value of percent of control at 10^−7 M was more than 60% or the value of IC50 was more than 200 nM.)

CN(C)c1nc(N[C@H]2CC[C@@H](NC(=S)Nc3cc(Br)ccc3Br)CC2)nc2c1CCCC2 [compound 2033]
class [2]: 3 (Class 3 The value of percent of control at 10^−7 M was more than 60% or the value of IC50 was more than 200 nM.)

CN(C)c1ccnc(N[C@H]2CC[C@@H](NC(=O)C3CCc4ccccc4C3)CC2)n1 (relative stereo) [compound 917]
class [1]: 3 (Class 3 The value of percent of control at 10^−7 M was more than 60% or the value of IC50 was more than 200 nM.)

CN(C)c1cc(N[C@H]2CC[C@@H](CNC(=O)/C=C/c3cccc([N+](=O)[O-])c3)CC2)nc2ccccc12 [compound 797]
class [1]: 2 (Class 2: The value of percent of control at 10^−7 M was from 40% to 60% or the value of IC′50 was from 50 nM to 200 nM.)

COc1ccc(Cl)cc1CNC[C@H]1CC[C@@H](Nc2cc(N(C)C)c3ccccc3n2)CC1 [compound 1474]
class [1]: 3 (Class 3 The value of percent of control at 10^−7 M was more than 60% or the value of IC50 was more than 200 nM.)

Cc1cc(C(=O)N[C@H]2CC[C@@H](Nc3ncc(C)c(N(C)C)n3)CC2)ccc1F [compound 2923, N-(cis-4-{[4-(dimethylamino)-5-methylpyrimidin-2-yl]amino}cyclohexyl)-4-fluoro-3-methylbenzamide]
class [3]: 1 (Class 1: The value of percent of control at 10^−7 M was less than 40% or the value of IC50 was less than 50 nM.)

Cc1cnc(N[C@H]2CC[C@@H](NC(=O)N(C)c3cccc(Cl)c3)CC2)nc1N(C)C [compound 3021, N-(3-chlorophenyl)-N′-(cis-4-{[4-(dimethylamino)-5-methylpyrimidin-2-yl]amino}cyclohexyl)-N-methylurea]
class [3]: 1 (Class 1: The value of percent of control at 10^−7 M was less than 40% or the value of IC50 was less than 50 nM.)

C[C@@H](NC(=S)N[C@H]1CC[C@@H](Nc2nccc(N(C)C)n2)CC1)c1ccccc1 [compound 2343]
class [4]: 3 (Class 3 The value of percent of control at 10^−7 M was more than 60% or the value of IC50 was more than 200 nM.)

CN(C)c1cc(N[C@H]2CC[C@@H](NC(=O)c3ccccc3-c3ccccc3)CC2)nc2ccccc12 [compound 755]
class [1]: 3 (Class 3 The value of percent of control at 10^−7 M was more than 60% or the value of IC50 was more than 200 nM.)

CN(C)c1ccnc(N[C@H]2CC[C@@H](NC(=O)CCc3ccccc3)CC2)n1 [compound 345]
class [1]: 3 (Class 3 The value of percent of control at 10^−7 M was more than 60% or the value of IC50 was more than 200 nM.)

Cc1cc(C(=O)N[C@H]2CC[C@@H](Nc3nc4c(c(N(C)C)n3)CCCC4)CC2)c(C(F)(F)F)o1 [compound 506]
class [5]: 2 (Class 2: The value of percent of control at 10^−7 M was from 40% to 60% or the value of IC′50 was from 50 nM to 200 nM.)

Cc1ccccc1NC(=O)NC[C@H]1CC[C@@H](Nc2nccc(N(C)C)n2)CC1 [compound 2414]
class [4]: 3 (Class 3 The value of percent of control at 10^−7 M was more than 60% or the value of IC50 was more than 200 nM.)

CN(C)c1nc(N[C@H]2CC[C@@H](NC(=S)NC3CCCCCC3)CC2)nc2c1CCCC2 [compound 2055]
class [2]: 3 (Class 3 The value of percent of control at 10^−7 M was more than 60% or the value of IC50 was more than 200 nM.)

CN(C)c1ccnc(N[C@H]2CC[C@@H](NC(=O)Nc3ccccc3[N+](=O)[O-])CC2)n1 [compound 2237]
class [1]: 3 (Class 3 The value of percent of control at 10^−7 M was more than 60% or the value of IC50 was more than 200 nM.)

CCOc1ccc(NC(=O)N[C@H]2CC[C@@H](Nc3nc4c(c(N(C)C)n3)CCCC4)CC2)cc1 [compound 1888]
class [1]: 3 (Class 3 The value of percent of control at 10^−7 M was more than 60% or the value of IC50 was more than 200 nM.)

CCC(Oc1ccccc1)C(=O)NC[C@H]1CC[C@@H](Nc2nc3c(c(N(C)C)n2)CCCC3)CC1 (relative stereo) [compound 610]
class [1]: 3 (Class 3 The value of percent of control at 10^−7 M was more than 60% or the value of IC50 was more than 200 nM.)

N-[(cis-4-{[4-(dimethylamino)pyrimidin-2-yl]amino}cyclohexyl)methyl]-N′-(2-ethyl-6-isopropylphenyl)urea [compound 2422]
class [4]: 1 (Class 1: The value of percent of control at 10^−7 M was less than 40% or the value of IC50 was less than 50 nM.)

CCc1ccccc1NC(=O)N[C@H]1CC[C@@H](Nc2nccc(N(C)C)n2)CC1 [compound 2197]
class [1]: 3 (Class 3 The value of percent of control at 10^−7 M was more than 60% or the value of IC50 was more than 200 nM.)

COc1cc(Br)c(CNC[C@H]2CC[C@@H](Nc3nc4c(c(N(C)C)n3)CCCC4)CC2)cc1OC [compound 1433]
class [1]: 3 (Class 3 The value of percent of control at 10^−7 M was more than 60% or the value of IC50 was more than 200 nM.)

CN(C)c1ccnc(N[C@H]2CC[C@@H](CNC(=O)OCC(Cl)(Cl)Cl)CC2)n1 [compound 1658]
class [6]: 3 (Class 3 The value of percent of control at 10^−7 M was more than 60% or the value of IC50 was more than 200 nM.)

CN(C)c1nc(N[C@H]2CC[C@@H](CNCCCCCCCCc3ccccc3)CC2)nc2c1CCCC2 [compound 1502]
class [1]: 3 (Class 3 The value of percent of control at 10^−7 M was more than 60% or the value of IC50 was more than 200 nM.)

CN(C)c1cc(N[C@H]2CC[C@@H](NC(=O)c3cc(C(F)(F)F)cc(C(F)(F)F)c3)CC2)nc2ccccc12 [compound 78, N-(cis-4-{[4-(dimethylamino)quinolin-2-yl]amino}cyclohexyl)-3,5-bis(trifluoromethyl)benzamide]
class [2]: 2 (Class 2: The value of percent of control at 10^−7 M was from 40% to 60% or the value of IC′50 was from 50 nM to 200 nM.)

COC(=O)N[C@H]1CC[C@@H](Nc2nc3c(c(N(C)C)n2)CCCC3)CC1 [compound 1595]
class [6]: 3 (Class 3 The value of percent of control at 10^−7 M was more than 60% or the value of IC50 was more than 200 nM.)

Cc1cnc(N[C@H]2CC[C@@H](NC(=O)C[S+]([O-])c3ccccc3C(F)(F)F)CC2)nc1N(C)C (relative stereo) [compound 2880]
class [3]: 1 (Class 1: The value of percent of control at 10^−7 M was less than 40% or the value of IC50 was less than 50 nM.)

CCc1ccc(CNC[C@H]2CC[C@@H](Nc3nccc(N(C)C)n3)CC2)s1 [compound 1278]
class [1]: 3 (Class 3 The value of percent of control at 10^−7 M was more than 60% or the value of IC50 was more than 200 nM.)

CN(C)c1nc(N[C@H]2CC[C@@H](NC(=S)NCCCc3ccccc3)CC2)nc2c1CCCC2 [compound 2011]
class [2]: 3 (Class 3 The value of percent of control at 10^−7 M was more than 60% or the value of IC50 was more than 200 nM.)

Cc1c(C)c(C)c(CNC2CCC(Nc3nccc(N(C)C)n3)CC2)c(C)c1C (stereo not drawn) [compound 1519]
class [6]: 3 (Class 3 The value of percent of control at 10^−7 M was more than 60% or the value of IC50 was more than 200 nM.)

Cc1cc(C(=O)NC[C@H]2CC[C@@H](Nc3nc4c(c(N(C)C)n3)CCCC4)CC2)ccc1F [compound 643]
class [1]: 2 (Class 2: The value of percent of control at 10^−7 M was from 40% to 60% or the value of IC′50 was from 50 nM to 200 nM.)

Cc1ccc(CNC(=S)N[C@H]2CC[C@@H](Nc3nc4c(c(N(C)C)n3)CCCC4)CC2)cc1 [compound 2021]
class [2]: 3 (Class 3 The value of percent of control at 10^−7 M was more than 60% or the value of IC50 was more than 200 nM.)

Cc1ccc(-c2ccc(C(=O)NC[C@H]3CC[C@@H](Nc4nc5c(c(N(C)C)n4)CCCC5)CC3)o2)c([N+](=O)[O-])c1 [compound 1074]
class [7]: 3 (Class 3 The value of percent of control at 10^−7 M was more than 60% or the value of IC50 was more than 200 nM.)

CCc1cccc(C)c1NC(=O)NC[C@H]1CC[C@@H](Nc2nc3c(c(N(C)C)n2)CCCC3)CC1 [compound 2454]
class [4]: 1 (Class 1: The value of percent of control at 10^−7 M was less than 40% or the value of IC50 was less than 50 nM.)

CN(C)c1cc(N[C@H]2CC[C@@H](NC(=O)c3ccc(C(F)(F)F)c(F)c3)CC2)nc2ccccc12 [compound 772, N-(cis-4-{[4-(dimethylamino)quinolin-2-yl]amino}cyclohexyl)-3-fluoro-4-(trifluoromethyl)benzamide]
class [1]: 1 (Class 1: The value of percent of control at 10^−7 M was less than 40% or the value of IC50 was less than 50 nM.)

CN(C)c1ccnc(N[C@H]2CC[C@@H](NC(=O)c3ccc4c(c3)OCO4)CC2)n1 [compound 265]
class [1]: 3 (Class 3 The value of percent of control at 10^−7 M was more than 60% or the value of IC50 was more than 200 nM.)

COc1cc(F)c(CNC[C@H]2CC[C@@H](Nc3nc4c(c(N(C)C)n3)CCCC4)CC2)cc1OC [compound 1442]
class [1]: 3 (Class 3 The value of percent of control at 10^−7 M was more than 60% or the value of IC50 was more than 200 nM.)

Cc1cc(C(=O)N[C@H]2CC[C@@H](Nc3nc4c(c(N(C)C)n3)CCCC4)CC2)nn1C(C)(C)C [compound 526]
class [5]: 3 (Class 3 The value of percent of control at 10^−7 M was more than 60% or the value of IC50 was more than 200 nM.)

CN(C)c1nc(N[C@H]2CC[C@@H](NC(=O)c3ccccc3CCc3ccccc3)CC2)nc2c1CCCC2 [compound 1008]
class [7]: 3 (Class 3 The value of percent of control at 10^−7 M was more than 60% or the value of IC50 was more than 200 nM.)

CN(C)c1ccnc(N[C@H]2CC[C@@H](CNC(=O)c3c(F)cccc3Cl)CC2)n1 [compound 450]
class [5]: 3 (Class 3 The value of percent of control at 10^−7 M was more than 60% or the value of IC50 was more than 200 nM.)

CN(C)c1cc(N[C@H]2CC[C@@H](CNC(=O)c3c(F)cccc3C(F)(F)F)CC2)nc2ccccc12 [compound 230]
class [1]: 3 (Class 3 The value of percent of control at 10^−7 M was more than 60% or the value of IC50 was more than 200 nM.)
